Series [1] concerns ddY female mice with ovary extraction. Put plainly: Histomorphometric changes of left thigh, Hematoxylin-Eosin dyeing. The class given is in vivo. Here is the method:
(§1) For histological analysis of experimental animals, the left thigh of each mouse is separated to fix in 10% neutral buffer formalin (NBF) solution, and then delimed during 5 days at delime solution [24.4% formic acid, […]] (the mixed delime solution is exchanged each day one times during 3 days). And then it is fixed to paraffin and then made fraction ([…]) and dyed with hematoxylineosin.
A histomorphometric change of left thigh is analyzed by dyeing with Hematoxylin-Eosin.

Series [2] shares this test system. Put plainly: Weight of bone of both thighs in ovary-extracted mice. The format is in vivo. The following applies: wet weight, FOSA group: Fosamax 10 mg/kg oral, 4 weeks. The protocol:
After sacrifice, a weight of bone of both thighs is calculated with g unit. To reduce an error arising from a difference of individual body weight, a weight of bone is calculated with relative weight as following equation. Weight of bone=[(absolute weight of bone/body weight at sacrifice)×100]

For series [3] the following is noted: FOSA group: Fosamax 10 mg/kg oral; I: body weight after sacrifice − after administration.
Protocol: 25 ddY female mice (age of 6 weeks, SLC, Japan) are used after adaptation during 7 days. The above animals are grouped each 5 and bred in a cage made of polycarbonate under the condition of temperature of 20˜25° C. and humidity of 30˜35%. A cycle of light and darkness is controlled to 12 hours: 12 hours. Feed stuff (Samyang Co., Korea) and water is fed freely. For 20 mice, the both ovary is taken out (ovary extraction : disclosing the both ovary, and then removing all of the both ovary, and then suturing with the same method), and for 5 mice, only sham surgical operation is carried out (sham surgical operation disclosing the both ovary by cutting (3 cm) a skin and an abdominal muscle, and then closing using a skin suturing technique). For the purpose of therapeutic research, a treatment is started after 4 weeks of the ovary extraction, each sample is administrated during 4 weeks.
All sample is stored at a refrigerate (−10° C.) to prevent from a moisture and light. […]
Change of body weight and increasing part is calculated after immediately surgical operation, after 4 weeks of surgical operation, after administration, and each week one times during experiment period. […] Also, an increasing part of body weight during adapting period (Increasing part I) and administrating period (Increasing part II) is calculated as followings. […]
The test system of series [4] is ddY female mice with ovary extraction. Put plainly: Histological indices of trabecular and cortical bone of thigh in ovary-extracted mice. The format is in vivo. Particulars: FOSA group: Fosamax 10 mg/kg oral, 4 weeks.
Source text: as §1
Body weight, weight of both thigh, histological change including trabecular bone volume (TBV) % and Cortical bone thickness (Cbt) is analyzed. Also, histomorphometric changes of the trochoid bone of left thigh are observed. All experimental result of followings are shown with means±standard deviation. A statistical analysis is carried out by using SPSS For Windows (Release 6.1.3., SPSS Inc, USA) and Mann-Whitney U-Wilcoxon Rank Sum W test(M-W test).
TBV is calculated by using a Auto Image analysis (analySIS Image Processing; SIS, Germany) under 100 magnifications on a microscope (Zeiss, Germany) for regular size of trabecular bone at the trochoid bone of […] (excluding a growth plate). TBV is calculated with (%) unit.
A trabecular bone thickness (Tbt), a number of trabecular bone (Tbn), and a trabecular bone length (Tbl) are calculated by using a Auto Image analysis (analySIS Image Processing; SIS, Germany) under 100 magnifications on a microscope (Zeiss, Germany) for regular size at the trochoid bone of left thigh (excluding a growth plate). Tbt and Tbl are calculated with μm unit, and Tbn is calculated with a number of trabecular bone/all section of the trochoid bone section. Tbt and Tbl is calculated at trabecular bone that is most developed in a regular size of the trochoid bone section.
Cbt is measured at the trochlea neck of thigh and calculated by using a Auto Image analysis (analySIS Image Processing; SIS, Genmany) under 200 magnifications on a microscope (Zeiss, Germany) at prepared histological sample.

Marks after values point to notes of the source that are not given here.

For the compound `NCCCC(O)(P(=O)(O)O)P(=O)(O)O` [FOSA, sodium alendronate], in series [1] (Fosamax and beta-glucan groups compared with control group, width or number lower than sham group), the “histomorphometric changes of trabecular bone of left thigh (FIG. 3)” value was “many an extended trabecular bone”. Also, the “histomorphometric changes of cortical bone of left thigh (FIG. 4)” value in series [1] (Fosamax group, 10 mg/kg oral, 4 weeks) was “Some increased or similar width and histomorphometric property comparing with control group”. Moreover, the “Absolute weight of bone” value in series [2] turned out to be 0.075 ± 0.006 g. The “Increasing part II of body weight” value in series [3] is listed as 3.26 ± 2.73. Also, in series [4] (control 3.40 ± 1.14), the “Tbn number of trabecular bone” value worked out at 15.20 ± 2.77. Besides, in series [4] (control 66.40 ± 11.70), the “Tbt(μm) trabecular bone thickness” value is 93.60 ± 9.56 μm. For the same compound, the “Cbt(μm) Cortical bone thickness” value in series [4] (control 99.20 ± 20.46) worked out at 102.50 ± 22.29 μm. Besides, the “Tbl(μm) trabecular bone length” value in series [4] (control 524.40 ± 176.78) is recorded as 759.40 ± 89.17*^,## μm. For the same compound, the “TBV (%) trabecular bone volume” value in series [4] (n = 5, control 20.23 ± 1.72, sham 47.31 ± 5.95) amounted to 35.13 ± 4.28%.

The values above are taken from US7671039B2 (Glucan Corporation, priority 2004, dated 2010).
